According to US7700553B2, “Selective inhibition of NF-κB activation by peptides designed to disrupt nemo oligomerization” (priority 2003, dated 2010):
Ends that are not written are not given here. Peptide text beside a SMILES is read from it. * marks the point of attachment. BODIPYFLEthylmaleimide = Cc1cc(C)n2c1C=C1C=CC(CCC(=O)NCCN3C(=O)CC(*)C3=O)=[N+]1[B-]2(F)F; BODIPY = not defined here; Cam = NC(=O)C*

What was measured:
[1] = system: LPS-induced NF-κB activation in 70Z/3-C3 cells; experiment: NF-κB inhibition assay, first procedure (NF-κB dependent β-galactosidase reporter, LPS stimulation); format: cell-based, murine; details: for effect on LPS-induced NF-κB activation of peptides not fused to antennapedia (in words): 2 h peptide, then 3 h LPS (FIG. 3D); for effect on LPS-induced NF-κB activation (in words): 20 μM peptide, 2 h, then 5 h LPS
Protocol: The resulting cell line, 70Z3-C3, was incubated for 2 hours in the absence or in the presence of 20 μM of antennapedia peptide (Ant), or BODIPY-labeled antennapedia peptide (BODIPY-Ant), or BODIPY-labeled antennapedia peptide coupled to CC2 (BODIPY-Ant-CC2) or LZ (BODIPY-Ant-LZ) peptides, After peptide internalization, cells were treated for 5 hours with LPS (3 μg/ml, (+) in left panel) or untreated (right panel and (−) in left panel) and the NF-κB activity was measured by β-galactosidase assay. […] Cells were treated as in (A) but with different concentration of peptide as indicated. The potential of each peptide to inhibit LPS-induced NF-κB activation was measured by determining the IC50 value that correspond to 50% inhibition of LPS-induced NF-κB activation as compared to the control (no peptide) (C). […] Control (no peptide) or CC2, or LZ peptides, with (BODIPY-ANT-CC2, BODIPY-ANT-LZ) or without the antennapedia sequence at the N-terminus (CC2, LZ) were incubated for 2 hours with 70Z3-C3 cells followed with (+) or without (−) the LPS-treatment for 3 hours. NF-κB activity was then measured by β-galactosidase assay.
In a first procedure 2.2×10^5 70Z/3-C3 cells in 220 μl of RPMI 1640 supplemented with 10% fetal calf serum (FCS) and 50 μM β-mercaptoethanol were placed in a 96-well plate and incubated with various concentrations of peptide (0 to 20 μM) at 37° C. in 5% CO2 incubator. After two hours an equal portion (100 μl) of each cell sample transferred in two wells containing each 10^5 cells. One aliquot of cells was then treated for 5 hours with lipopolysaccharides from Salmonella abortus (Sigma) at 0.5 μg/ml final concentration, and the other one left-treated. After 5 hours, cells were centrifuged at 400×g for 5 min at room temperature and the cell pellets were washed three times with cold PBS (250 μl) by centrifugation. Cells were then lysed in the lysis buffer (25 mM tris-phosphate buffer at pH 7.8 containing 8 mM magnesium chloride, 1 mM dithioerythreitol, 1% Triton X-100, 15% glycerol and a protease inhibitor mixture (Roche)), and samples were centrifuged at 4° C. for 20 min to clarify the lysate. The supernatant was then kept on ice, and 30 μl was then assayed to measure the β-galactosidase activity with a plate luminometer (Berthold) using the galacton-star as chemiluminescent substrate (BD Biosciences Clontech, Bronstein et al., 1989). Background of reaction was measured by mixing for 1 hour 30 μl of lysis buffer with the reaction buffer (196 μl) and the galacton-star substrate (4 μl) provided by BD Biosciences.

[2] = system: human retinoblastoma cell lines Y79; format: cell-based; details: for Y79 cell died: 5 μM
Protocol: FIG. 8: Cell Death Induced in the Retinoblastoma Cell Line Y79 by Ant-CC2 and Ant-LZ Peptides Rb cell line Y79 were treated with various concentration of the Ant-CC2 (WT) (filled squares) or Ant-CC2 (Mu) (open squares) (A), or Ant-LZ (WT) (filled circles), or Ant-LZ (Mu) (open circles) (B), or Ant peptide (open triangle) (C) for 3 hours (A, B) or 16 hours (C). Cell survival was then evaluated using the MTS assay as described in “Materials and methods”
The detection of cell death was performed using the MTS assay provided by Promega (CellTiter 96® AQueous one solution cell proliferation assay). Briefly, 0.3×10^6 Y79 cells in 450 μl were treated with 50 μl of the wild type Ant-CC2 and Ant-LZ peptides (0.1 to 20 μM) or their mutants Ant-CC2 (Mu), Ant-LZ (Mu) or the Ant or left untreated in serum-free RPMI medium at 37° C. After an incubation of […], an aliquot of the cell suspension (200 μl, 0.12×10^6 cells), was then transferee in 96-well plates and mixed with the MTS solution (40 μl) containing the MTS compound and the phenazine ethosulfate. Two hours after, the quantity of formazan produced by viable cells was measured using an automated microplate reader (Bio-TeK Instruments, INC) at 490 nm absorbance. Cell survival was observed under microscope and was estimated as a percentage of the value of untreated controls. The background of the reaction was determined by mixing the MTS solution with cell-free RPMI medium. To increase the sensitivity of the cell death assay, the present inventors used peptides devoid of BODIPY-labeling because the absorption spectra of the fluorophor overlaps with that of the formazan product. All experiments were repeated twice and each experiment condition was repeated in duplicate wells in each experiment.
Given that specific NF-κB inhibition may trigger apoptosis of cancer cells, the present inventors examined the effects of both cell-permeable Ant-LZ and Ant-CC2 peptides on human retinoblastoma cell viability. In these experiments, the present inventors used NEMO-derived polypeptides without a N-terminal BODIPY labeling to prevent any interference with the MTS assay (see “Materials and Methods”). […] The effect of the Ant-LZ peptide on cell death was stronger than that of the Ant-CC2. This induction of cell death was significant since Rb cell survival was 20% and 65% with the Ant-LZ and the Ant-CC2 peptides respectively when cancer cells were treated for 3 hours at a 20 μM concentration. […] In contrast, 80% and 55% of Y79 cell died in the presence of Ant-LZ and Ant-CC2 respectively at 5 μM concentration (FIG. 8C).

70Z/3-C3 cells = experiment: FACS analysis of cellular uptake of BODIPY-labeled peptides; format: cell-based, murine; details: 2 μM BODIPY-peptide, 2 h at 37° C.
Protocol: All experiments were performed in duplicates.
The uptake of BODIPY labeled NEMO peptides into living cells were monitored by fluorescence activated cell sorting (FACS) which is a conventional tool used to quantify cellular internalization.
Then present inventors next investigated the kinetic and concentration dependency of cellular uptake for the Ant-CC2 BODIPY peptide keeping in mind that the transduction of other NEMO peptides should occur in a similar fashion (FIGS. 2B and 2C).

lymphocytes B = experiment: Cytotoxicity by MTS assay, microscope observation and FACS; details: for Cytotoxicity MTS Assay: MTS cell proliferation assay (Promega); for cellular proportion of cell death by FACS: pre-B lymphocytes, 20 μM
[3] = Kd and cooperativity indice of NLM peptides by Hill coefficient calculation; format: binding; details: for Kd: Hill equation fit, read-out: dissociation constant Kd
Description: The present inventors compared NLM-DR to the corresponding NLM peptide by measuring the respective cooperativity indices, which evidence an advantage of NLM-DR mutated peptide over the wild-type.
The calculation of the “cooperativity indice” by means of Hill coefficient is based on the following formula Boundmax×L^n/(KD^n+L^n)
Boundmax is the maximum concentration of the bound ligand,
L is the concentration of the free ligand,
n is the cooperativity indice and
KD, is the affinity constant of the ligand by the protein.
If these values were to be compared to those obtained from the curves without accounting for cooperativity, the affinity of NLM-DR peptide would be 75 times higher than the affinity of wild-type NLM peptide.

[4] = longer treatment (FIG. 8C, 16 hours)

In the case of “LKAQADIYKADFQAERHAREKLVEKKEYLQEQLEQLQREFNKL [LZ (WT)]”, the “effect on LPS-induced NF-κB activation of peptides not fused to antennapedia (in words)” value [1] is reported as “same level of activation as the control”.

For “Ant-CC2 (Mu): mutant Ant-CC2 devoid of BODIPY-labeling (sequence of SEQ ID NO: 4) (Ac-CRQIKIWFQNRRMKWKKSKGMQLEDLRQQGQQAEEAGVAKQELGDKLKEEAEQHKIV-NH2; not fully specified (residue 1))”, the “induction of cell death (in words)” value ([2]; Y79 cells, 3 hours, mutant peptides) was “did not induce concentration cell death” and the “proportion of cells transduced” value (70Z/3-C3 cells) was 100%.

For “B-CRRRRRRRLKAQAKIYKARFQAERHAREK [BODIPY-R7-NLM-DR] (CRRRRRRRLKAQADIYKARFQAERHAREK; not fully specified (N-terminus))”, the “Cytotoxicity Cell morphology FACS” value (lymphocytes B) was “no” and the “Cytotoxicity Cell morphology Microscope” value (lymphocytes B) was “no”.

With “NLM: corresponding wild type NLM peptide covering the same 21 amino acid range as NLM-DR (LKAQADIYKADFQAERHAREK-NH2; not fully specified (N-terminus))” the Kd [3] was 240 µM.

For “B-CRQIKIWFQNRRMKWKK ({BODIPY}-CRQIKIWFQNRRMKWKK; reading uncertain) [BODIPY-Ant, reference compound]”, the “effect on LPS-induced NF-κB activation (in words)” value [1] was “same level of NF-κB activation as the control”.

With CC[C@H](C)[C@H](NC(=O)[C@H](CC(=O)O)NC(=O)[C@H](C)NC(=O)[C@H](CCC(N)=O)NC(=O)[C@H](C)NC(=O)[C@H](CCCCN)NC(=O)[C@H](CC(C)C)NC(=O)[C@H](CCCNC(=N)N)NC(=O)[C@H](CCCNC(=N)N)NC(=O)[C@H](CCCNC(=N)N)NC(=O)[C@H](CCC(N)=O)NC(=O)[C@H](CCCNC(=N)N)NC(=O)[C@H](CCCNC(=N)N)NC(=O)[C@H](CCCCN)NC(=O)[C@H](CCCCN)NC(=O)[C@H](CCCNC(=N)N)NC(=O)CNC(=O)[C@H](Cc1ccc(O)cc1)NC(=O)[C@H](CSC1CC(=O)N(CCNC(=O)CCC2=[N+]3C(=Cc4c(C)cc(C)n4[B-]3(F)F)C=C2)C1=O)NC(C)=O)C(=O)N[C@@H](Cc1ccc(O)cc1)C(=O)N[C@@H](CCCCN)C(=O)N[C@@H](C)C(=O)N[C@@H](CCCNC(=N)N)C(=O)N[C@@H](Cc1ccccc1)C(=O)N[C@@H](CCC(N)=O)C(=O)N[C@@H](C)C(=O)N[C@@H](CCC(=O)O)C(=O)N[C@@H](CCCNC(=N)N)C(=O)N[C@@H](Cc1c[nH]cn1)C(=O)N[C@@H](C)C(=O)N[C@@H](CCCNC(=N)N)C(=O)N[C@@H](CCC(=O)O)C(=O)N[C@@H](CCCCN)C(N)=O (stereo partly shown) [BODIPY-TAT-NLM-DR] (Ac-C(BODIPYFLEthylmaleimide)YGRKKRRQRRRLKAQADIYKARFQAERHAREK-NH2) the “Cytotoxicity Cell morphology FACS” value (lymphocytes B) was “no”, the “Cytotoxicity MTS Assay” value (lymphocytes B) was “no” and the “Cytotoxicity Cell morphology Microscope” value (lymphocytes B) was “no”.

In the case of “SKGMQLEDLRQQLQQAEEALVAKQELIDKLKEEAEQHKIV [CC2 (WT)]”, the “effect on LPS-induced NF-κB activation of peptides not fused to antennapedia (in words)” value [1] is reported as “same level of activation as the control”.

In the case of “B-CRQIKIWFQNRRMKWKKLAQADIYKARFQAERHAREK (CRQIKIWFQNRRMKWKKLKAQADIYKARFQAERHAREK; not fully specified (N-terminus)) [BODIPY-Ant-NLM-DR]”, the “Cytotoxicity Cell morphology FACS” value (lymphocytes B) is reported as “+”, the “Cytotoxicity MTS Assay” value (lymphocytes B) is reported as “no” and the “Cytotoxicity Cell morphology Microscope” value (lymphocytes B) is reported as “+”.

With LKAQADIYKARFQAERHAREK [NLM-DR] the Kd [3] was 170 µM and the “affinity of NLM-DR peptide relative to wild-type NLM peptide” value ([3]; values compared without accounting for cooperativity) was 75 times.

In the case of “B-CRRRRRRRLKAQAKIYKARFQAERHAREK [BODIPY-R9-NLM-DR] (CRRRRRRRRRLKAQADIYKARFQAERHAREK; not fully specified (N-terminus))”, the “Cytotoxicity Cell morphology FACS” value (lymphocytes B) is reported as “no”, the “Cytotoxicity MTS Assay” value (lymphocytes B) is reported as “no” and the “Cytotoxicity Cell morphology Microscope” value (lymphocytes B) is reported as “no”.

For “Ac-CRQIKIWFQNRRMKWKKLKAQADIYKADFQAERHAREKLVEKKEYLQEQLEQLQREFNKL-NH2 [Ant-LZ]”, the Y79 cell died [2, 4] was 80% and the “proportion of cells transduced” value (70Z/3-C3 cells) was 100%.

In the case of “Ac-C(Cam)RQIKIWFQNRRMKWKKSKGMQLEDLRQQLQQAEEALVAKQELIDKLKEEAEQHKIV-NH2 [Ant-CC2]”, the Y79 cell died [2, 4] is reported as 55%, the “cellular proportion of cell death by FACS” value (lymphocytes B; absence of stimuli) is reported as 9% and the “cellular proportion of cell death by FACS” value (lymphocytes B; after LPS stimulation) is reported as 13%. The “proportion of cells transduced” value (70Z/3-C3 cells) was 100%.

In the case of “Ant-LZ (Mu): mutant Ant-LZ devoid of BODIPY-labeling (sequence of SEQ ID NO: 8) (Ac-CRQIKIWFQNRRMKWKKLKAQADIYKADFQAERHAREKLVEKKEYSQEQLEQSQREFNKL-NH2; not fully specified (residue 1))”, the “proportion of cells transduced” value (70Z/3-C3 cells) is reported as 100%.

In the case of “Ant: third helix of the Antennapedia/penetratin protein, internalization peptide (SEQ ID NO: 1), without BODIPY label (CRQIKIWFQNRRMKWKK) [reference compound]”, the “effect on cell survival (in words)” value ([2]; Y79 cells, longer treatment (FIG. 8C, 16 hours)) is reported as “did not affect cell survival” and the “effect on LPS-induced NF-κB activation (in words)” value [1] is reported as “same level of NF-κB activation as the control”.
